Assay [1] concerns the target T1, Myocilin (Homo sapiens) (UniProt Q99972).
T1 sequence (whole entry): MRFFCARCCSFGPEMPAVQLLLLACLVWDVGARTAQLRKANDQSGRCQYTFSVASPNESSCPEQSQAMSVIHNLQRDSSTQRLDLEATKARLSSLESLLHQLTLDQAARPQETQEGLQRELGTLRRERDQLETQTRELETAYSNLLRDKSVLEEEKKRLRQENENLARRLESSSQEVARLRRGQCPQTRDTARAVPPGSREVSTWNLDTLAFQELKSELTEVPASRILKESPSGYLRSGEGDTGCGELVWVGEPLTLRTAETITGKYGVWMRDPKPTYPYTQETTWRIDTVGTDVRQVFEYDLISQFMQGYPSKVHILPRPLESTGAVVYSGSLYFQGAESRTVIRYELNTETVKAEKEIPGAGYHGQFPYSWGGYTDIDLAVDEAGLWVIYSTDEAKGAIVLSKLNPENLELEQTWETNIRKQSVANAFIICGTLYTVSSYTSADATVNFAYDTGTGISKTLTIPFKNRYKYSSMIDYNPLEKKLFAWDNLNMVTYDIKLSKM
Briefly: Binding affinity myocilin-OLF domain (unknown origin) assessed as change in melting temperature by Sypro Orange dye-based DSF assay. (Differential scanning fluorimetry follows unfolding on heating by fluorescence.)

Assay [2] has as its target T2, Myocilin (Homo sapiens, UniProt Q99972).
T2 sequence (Q99972 whole entry): T1 sequence (whole entry)
Briefly: Binding affinity myocilin-OLF domain (unknown origin) by SRP assay.

The target in assay [3] is T1, Myocilin (Homo sapiens). The assay can be described thus: Binding affinity myocilin-OLF domain (unknown origin) assessed as change in melting temperature by SRP assay.
Assay [4] has as its target T2, Myocilin. The assay can be described thus: Binding affinity myocilin-OLF domain (unknown origin) by Sypro Orange dye-based DSF assay. The note with it: read-out: Kd(app).

Structures are written as SMILES. pKd: −log10 of the molar value.

`COc1cccc(NC(S)=Nc2ccc(O)cc2)c1`: the ΔTm (commonly the shift of the melting midpoint relative to a reference) on Myocilin (Homo sapiens) [1] stood at 32 °C.

On to `O=c1cc(-c2ccc(O)cc2)oc2cc(O)cc(O)c12` [APIGENIN], for which, at Myocilin [2], the pKd – broadly, the Kd on a negative log10 scale, so that one unit is a factor of ten – was 4.38. The ΔTm on Myocilin (Homo sapiens) [3] was -0.3 °C.

Turning to `Cc1ccc(C(C)C)cc1NC(=O)Nc1ccc([N+](=O)[O-])cc1`, the pKd at Myocilin [4] was 4.96. Further, the ΔTm at Myocilin (Homo sapiens) [1] came out at 6.3 °C.

With `O=C(Cn1ccc(=O)[nH]c1=O)Nc1ccc(C(=O)O)c(O)c1`, the negative logarithm of the Kd (pKd) at Myocilin [4] was 3.70. On Myocilin (Homo sapiens) [1], the ΔTm is 1.96 °C.

For the compound `Cc1cc(N(CCCl)CCCl)ccc1/C=N/NC(=O)Cc1cc(=O)oc2cc(O)ccc12`, the pKd at Myocilin [4] is 3.68. Moreover, on Myocilin (Homo sapiens) [1], the ΔTm is 1.6 °C.

For the compound `O=C1c2ccccc2C(=O)C1C(c1ccc([N+](=O)[O-])cc1)C1C(=O)c2ccccc2C1=O`, the pKd at Myocilin [4] is 3.77. For the same compound, the ΔTm on Myocilin (Homo sapiens) [1] was 2.02 °C.

On to `Nc1nc(N)c(/N=N/c2ccc(C(=O)O)cc2)c(N)n1`, for which, at Myocilin [4], the pKd is 3.72. For the same compound, on Myocilin (Homo sapiens) [1], the shift in melting temperature (ΔTm) is 1.78 °C.

`O=C(/C=C/c1ccc(O)c(O)c1)c1ccccc1O`: the pKd at Myocilin [4] is 7.00. For the same compound, on Myocilin (Homo sapiens) [1], the ΔTm was determined as 16.4 °C.

For the compound `O=C1Nc2ccc(I)cc2C1=Cc1cc(Br)c(O)c(Br)c1` [GW305074X], the pKd at Myocilin [2] was 4.47. Further, the ΔTm on Myocilin (Homo sapiens) [3] is 0.2 °C.

As for `O=C(Nc1ccc(Oc2ccc(NC(=O)Nc3ccc([N+](=O)[O-])cc3)cc2)cc1)Nc1ccc([N+](=O)[O-])cc1`, the pKd on Myocilin [4] was 6.19. The ΔTm on Myocilin (Homo sapiens) [1] was found to be 11.2 °C.

Turning to `CN(C)c1ccc(/C=C/C(=O)c2cc(Cl)ccc2O)cc1`, the pKd at Myocilin [4] was 3.66. Also, the ΔTm at Myocilin (Homo sapiens) [1] is 1.5 °C.

For `COc1cc(C(=O)C(=O)c2ccc(O)c(OC)c2)ccc1O`, at Myocilin [4], the pKd was 3.52. Further, at Myocilin (Homo sapiens) [1], the ΔTm came out at 0.91 °C.

These data come from ChEMBL document CHEMBL4052788, “Pocket detection and interaction-weighted ligand-similarity search yields novel high-affinity binders for Myocilin-OLF, a protein implicated in glaucoma” (Bioorg Med Chem Lett, 2017).
